Results on two compounds are retold here after patent publication US20240226034A1, “Use of Terpenoids and Salicylates as Anesthetics and Analgesics” (THE REGENTS OF THE UNIVERSITY OF CALIFORNIA, priority 2021, published 2024).

Data set [1] deals with T1, GABAA receptors (human α1 GABRA1 and rat β2 GABRB2 subunits) (UniProt P14867+P63138).
T1 construct: expressed in transfected cells; host or cells: Xenopus laevis oocytes (intranuclear DNA injection)
Briefly: Two-electrode voltage clamp of GABAA receptors expressed in Xenopus oocytes. It counts as cell-based. The note with it: for effect on GABAA receptor currents: dose-response, oocytes. The text has this: Ovaries removed from sexually mature Xenopus laevis frogs were bluntly dissected to remove surrounding connective tissue and then digested with 0.2% type I collagenase in an oocyte Ringer's solution. Once free from thecal cells and connective tissue, individual oocytes were rinsed, sorted, and stored in a modified Barth's solution (R. Brosnan et al., […]. 103, (2006): 86; L. Yang, P. S. Milutinovic, […]. Sonner, […]. 105, (2007): 393; […]. Fukushima, & […]. 44, (2017): 577; […], Pharmacology 103, (2019): 10). Heteromeric GABAA receptors were expressed in oocytes by blind intranuclear injection of 1 ng DNA encoding the human al (GABRA1) and rat B2 (GABRB2) subunits in a 1:1 ratio. NMDA receptors were expressed by intracytoplasmic injection of 5 ng RNA encoding rat NR1 (GRIN1) and rat NR2a (GRIN2A) subunits in a 1:1 ratio. Nax 1.2 channels were expressed by injection of 5 ng RNA encoding the human SCN2A gene. Two-electrode voltage clamp studies of GABAA receptors were carried out in a 0.25-mL linear perfusion chamber. Perfusates were delivered by using a syringe pump at 1.5 mL/min using gastight glass syringes and polytetrafluoroethylene tubing. […] King Precision Glass, Claremont, CA, USA) connected to separate […] (Axon Instruments HS2A; Molecular Devices, San Jose, CA, USA) through which voltage was clamped at -80 mV and current was passed via a computer-controlled amplifier (Axon Instruments GeneClamp 500B; Molecular Devices). Oocytes were perfused with frog Ringer's (FR) solution containing 115 mM NaCl, 2.5 mM KCl, 1.8 mM CaCl2), and 10 mM HEPES prepared from ACS-grade chemicals and 18.2 MΩ H2O, filtered and pH adjusted to 7.4. […] After 30 s, the perfusate was switched back to FR solution. This process was repeated until a stable baseline response was achieved. Next, FR containing either L-carvone (99%; Sigma-Aldrich, St. Louis, MO, USA) or methyl salicylate (>99%; Sigma-Aldrich) at the test concentration was used to perfuse the oocyte for 1.5 min, and then the oocyte was perfused with FR+GABA solution containing this same drug and concentration for 30 s. […] Uninjected oocytes served as negative controls. Only one drug and concentration were studied per oocyte. […] Percent change in current was calculated as follows: [formula] • where IB is the baseline pre-drug current peak and ID is the drug current peak. For each drug and ion channel, data were fit to a Hill equation using nonlinear regression with sequential quadratic programming and bootstrap estimates of parameter standard errors (SPSS, v. 27; IBM, Armonk, NY, USA). In the model, maximum drug inhibition (Imax) was constrained to not be less than -100%. Initial parameter estimates were seeded with values based on visual inspection of respective dose-response curves in order to facilitate model convergence.
For orientation: Two-electrode voltage clamp is typically applied to oocytes expressing channels or transporters.

Data set [2] concerns the target T2, Nav1.2 channels (human SCN2A) (Homo sapiens, UniProt Q99250).
T2 construct: expressed in transfected cells; host or cells: Xenopus laevis oocytes (RNA injection)
Briefly: Two-electrode voltage clamp of Nav1.2 channels expressed in Xenopus oocytes. Type of data set: cell-based. Conditions: for inhibition of Nav1.2 channels: at the mean plasma concentration during IV infusion anesthesia in rats; for Hill coefficient, Nav1.2 channel inhibition: dose-response model; for effect on Nav1.2 channel currents: dose-response, oocytes. The source says: Ovaries removed from sexually mature Xenopus laevis frogs were bluntly dissected to remove surrounding connective tissue and then digested with 0.2% type I collagenase in an oocyte Ringer's solution. Once free from thecal cells and connective tissue, individual oocytes were rinsed, sorted, and stored in a modified Barth's solution (R. Brosnan et al., Anesth. Analg. 103, (2006): 86; L. Yang, P. S. Milutinovic, R. J. Brosnan, E. I. Eger 2nd, & J. M. Sonner, Anesth. Analg. 105, (2007): 393; R. J. Brosnan, F. B. Fukushima, & T. L. Pham, Anaesth. Analg. 44, (2017): 577; A. Cenani, R. J. Brosnan, & H. K. Knych, Pharmacology 103, (2019): 10).
Heteromeric GABAA receptors were expressed in oocytes by blind intranuclear injection of 1 ng DNA encoding the human al (GABRA1) and rat B2 (GABRB2) subunits in a 1:1 ratio. NMDA receptors were expressed by intracytoplasmic injection of 5 ng RNA encoding rat NR1 (GRIN1) and rat NR2a (GRIN2A) subunits in a 1:1 ratio. Nax 1.2 channels were expressed by injection of 5 ng RNA encoding the human SCN2A gene.
Studies of the Nav1.2 channels were carried out Using the same equipment as above, oocytes were perfused with FR and clamped at −80 mV transmembrane potential. Every 2 min, a 6-s step potential to 0 mV was applied to open the channel; this was repeated until baseline responses stabilized. Next, FR containing the test drug was perfused for 2 min followed by another 6-s step voltage change to 0 mV. Finally, FR was perfused for 5 min to wash out the drug, and another 6-s step clamp to 0 mV was applied to confirm that post-drug currents had returned to within 10% of pre-drug values.
The change in whole cell peak current before and during agonist exposure (for GABAA and NMDA receptors) or before and during the voltage step clamp (for Nav1.2 channels) was measured in the tracings immediately before and during drug exposure. Percent change in current was calculated as follows:
[formula] • where IB is the baseline pre-drug current peak and ID is the drug current peak. For each drug and ion channel, data were fit to a Hill equation using nonlinear regression with sequential quadratic programming and bootstrap estimates of parameter standard errors (SPSS, v. 27; IBM, Armonk, NY, USA). In the model, maximum drug inhibition (Imax) was constrained to not be less than −100%. Initial parameter estimates were seeded with values based on visual inspection of respective dose-response curves in order to facilitate model convergence.

Another data set concerns Sprague Dawley rats. Briefly: Another experiment: IV doses of 10% (v/v) solutions in […]. Type of data set: in vivo, rat. The source says:
In another experiment, a 10% (v/v) solution of methyl salicylate in […]®, and a 10% (v/v) solution of L-carvone in […]® were each tested in Sprague Dawley rats that each weighed approximately 300 g.

Another data set deals with carp. The note with it: immersion; cited from earlier work.
The mark [3] stands for this setting: at the mean plasma concentration during IV infusion anesthesia in rats.
Where [4] appears, read: Sprague Dawley, rat, in vivo, iv.

Values joined by “and” are separate entries in the source; they are usually repeats but may differ in a detail not shown here. Equal values may be shown once. “Also recorded” adds a separate entry of the source.

T1 sequence (P14867 28-456): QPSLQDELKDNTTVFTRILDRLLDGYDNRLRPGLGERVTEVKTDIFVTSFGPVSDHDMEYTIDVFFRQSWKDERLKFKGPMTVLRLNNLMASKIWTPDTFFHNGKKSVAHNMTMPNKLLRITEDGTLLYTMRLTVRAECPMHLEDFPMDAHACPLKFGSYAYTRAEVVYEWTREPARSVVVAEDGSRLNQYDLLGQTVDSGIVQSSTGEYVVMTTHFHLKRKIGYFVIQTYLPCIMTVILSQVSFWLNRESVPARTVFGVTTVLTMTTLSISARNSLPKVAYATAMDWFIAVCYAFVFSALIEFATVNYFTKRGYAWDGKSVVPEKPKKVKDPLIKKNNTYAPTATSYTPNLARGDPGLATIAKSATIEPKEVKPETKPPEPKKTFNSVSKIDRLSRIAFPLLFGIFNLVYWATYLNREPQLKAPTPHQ
T1 sequence (P63138 25-474 limits assumed): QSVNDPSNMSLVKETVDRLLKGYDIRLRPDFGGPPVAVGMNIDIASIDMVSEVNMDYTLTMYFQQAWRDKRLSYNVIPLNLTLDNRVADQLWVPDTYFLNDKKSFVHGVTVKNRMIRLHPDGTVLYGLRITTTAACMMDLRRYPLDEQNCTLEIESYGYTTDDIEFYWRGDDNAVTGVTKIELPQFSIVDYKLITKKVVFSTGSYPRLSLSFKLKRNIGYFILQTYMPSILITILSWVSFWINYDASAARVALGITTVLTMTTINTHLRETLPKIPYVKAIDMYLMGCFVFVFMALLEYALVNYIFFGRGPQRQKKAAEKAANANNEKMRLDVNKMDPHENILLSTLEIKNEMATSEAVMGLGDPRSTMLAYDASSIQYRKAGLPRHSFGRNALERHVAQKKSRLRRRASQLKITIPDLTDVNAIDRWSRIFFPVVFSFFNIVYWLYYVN
T2 sequence (Q99250 whole entry): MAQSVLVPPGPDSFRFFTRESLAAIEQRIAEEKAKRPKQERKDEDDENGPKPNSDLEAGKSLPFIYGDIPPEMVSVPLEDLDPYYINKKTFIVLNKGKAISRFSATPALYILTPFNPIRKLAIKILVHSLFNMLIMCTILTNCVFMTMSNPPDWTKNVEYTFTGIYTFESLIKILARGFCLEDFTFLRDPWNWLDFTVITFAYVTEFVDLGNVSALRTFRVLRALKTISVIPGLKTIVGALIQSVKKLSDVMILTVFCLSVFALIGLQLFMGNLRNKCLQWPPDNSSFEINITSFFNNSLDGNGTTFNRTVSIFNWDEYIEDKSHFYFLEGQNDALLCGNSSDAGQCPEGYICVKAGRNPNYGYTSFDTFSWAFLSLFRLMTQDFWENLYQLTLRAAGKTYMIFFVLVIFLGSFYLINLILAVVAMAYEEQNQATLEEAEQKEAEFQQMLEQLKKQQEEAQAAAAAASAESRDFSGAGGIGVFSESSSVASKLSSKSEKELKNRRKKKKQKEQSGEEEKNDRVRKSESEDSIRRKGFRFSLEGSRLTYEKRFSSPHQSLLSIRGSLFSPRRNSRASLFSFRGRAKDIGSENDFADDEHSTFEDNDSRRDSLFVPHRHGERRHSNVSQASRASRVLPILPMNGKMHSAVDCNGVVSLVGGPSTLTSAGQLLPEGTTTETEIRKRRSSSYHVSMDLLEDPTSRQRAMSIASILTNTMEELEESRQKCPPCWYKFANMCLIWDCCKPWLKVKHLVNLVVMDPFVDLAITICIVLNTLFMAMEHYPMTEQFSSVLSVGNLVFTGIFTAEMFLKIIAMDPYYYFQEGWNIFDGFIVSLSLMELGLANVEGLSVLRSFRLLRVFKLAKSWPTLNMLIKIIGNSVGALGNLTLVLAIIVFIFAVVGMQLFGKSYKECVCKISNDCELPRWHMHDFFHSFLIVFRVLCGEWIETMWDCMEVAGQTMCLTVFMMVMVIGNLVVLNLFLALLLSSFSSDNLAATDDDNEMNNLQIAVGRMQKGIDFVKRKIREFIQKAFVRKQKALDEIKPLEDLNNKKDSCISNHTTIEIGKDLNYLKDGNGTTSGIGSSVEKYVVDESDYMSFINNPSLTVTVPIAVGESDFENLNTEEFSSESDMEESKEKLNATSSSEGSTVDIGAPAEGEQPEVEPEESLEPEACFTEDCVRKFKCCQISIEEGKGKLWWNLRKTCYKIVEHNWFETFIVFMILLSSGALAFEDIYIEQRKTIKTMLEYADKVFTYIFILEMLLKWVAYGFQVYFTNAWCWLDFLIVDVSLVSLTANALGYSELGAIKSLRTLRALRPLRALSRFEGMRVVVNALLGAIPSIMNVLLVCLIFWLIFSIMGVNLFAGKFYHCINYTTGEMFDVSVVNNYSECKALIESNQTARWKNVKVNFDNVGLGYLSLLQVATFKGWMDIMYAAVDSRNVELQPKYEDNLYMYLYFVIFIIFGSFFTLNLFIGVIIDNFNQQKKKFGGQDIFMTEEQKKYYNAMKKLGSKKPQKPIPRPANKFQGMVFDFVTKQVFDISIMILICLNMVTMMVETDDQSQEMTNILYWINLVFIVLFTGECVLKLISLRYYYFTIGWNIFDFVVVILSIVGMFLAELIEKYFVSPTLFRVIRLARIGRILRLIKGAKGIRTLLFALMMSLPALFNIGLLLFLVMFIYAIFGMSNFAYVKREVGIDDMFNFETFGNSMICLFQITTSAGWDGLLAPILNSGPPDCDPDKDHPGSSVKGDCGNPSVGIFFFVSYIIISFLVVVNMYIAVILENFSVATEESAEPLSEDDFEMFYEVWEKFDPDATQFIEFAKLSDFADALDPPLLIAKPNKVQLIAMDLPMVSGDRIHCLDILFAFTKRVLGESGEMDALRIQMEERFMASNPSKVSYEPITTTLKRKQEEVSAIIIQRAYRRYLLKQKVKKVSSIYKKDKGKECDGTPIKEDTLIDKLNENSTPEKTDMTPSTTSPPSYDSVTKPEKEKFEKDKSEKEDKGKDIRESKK

Turning to `COC(=O)c1ccccc1O` [methyl salicylate], in data set [1] (setting [3]), the “potentiation of GABAA receptors” value is listed as 30%. For the same compound, the “effect on GABAA receptor currents” value in data set [1] is given as “potently inhibited; also recorded: biphasic effect”. Further, the IC50 in data set [1] (high-affinity inhibitory site, 50 μM GABA, oocytes clamped at −80 mV, read-out: IC50, inhibition of GABAA receptor currents) is 0.11 µM and ~0.1 µM. In addition, in data set [1] (low-affinity binding), the “Hill coefficient, GABAA receptor potentiation site” value is listed as “less than 1”. For the same compound, in data set [1] (potentiation site vs inhibitory site), the “concentration for second positive allosteric GABAA site relative to high-affinity site” value is on record as “about 50,000 times”. For the same compound, the EC50 in data set [1] (second site, high concentrations, read-out: median effective concentration, potentiation of GABAA currents) amounted to 5300 µM. Besides, in data set [2], the “inhibition of Nav1.2 channels” value is 78%; the “Hill coefficient, Nav1.2 channel inhibition” value is reported as “greater than 1”; the “effect on Nav1.2 channel currents” value is reported as “dose-dependently inhibited”. Further, in data set [2] (comparison of IC50, FIG. 4), the “greater potency for Nav1.2 channels than for NMDA receptors” value was 50%. Moreover, in the data set with Sprague Dawley rats (0.2 mL IV), the “duration of loss of righting reflex” value amounted to 30 s, the “time to ambulatory after return of righting” value was 40 s and the “time to loss of righting reflex” value is at most 25 s. In the data set with Sprague Dawley rats (0.4 mL IV), the “time to loss of righting” value was 15 s. In addition, in the data set on Sprague Dawley rats (setting [4]), the “time from apnea to confirmed cardiac arrest” value was “less than 1 minutes” and the “time from loss of righting to apnea” value was found to be 5 s. The “gross necropsy performed 2 days later” value in the data set on Sprague Dawley rats (rat, in vivo, iv) is recorded as “No evidence of hepatic, renal, cardiac, or pulmonary injury”. The “bath concentration causing anesthesia” value with carp was 0.8 to 2.3 mM.

As for L-carvone, the “GABAA receptor current at highest concentration” value in data set [1] (10 mM drug) is reported as “near or complete loss of channel currents; also recorded: almost entirely inhibited”. Further, the “inhibition of GABAA receptors” value in data set [1] (setting [3]) worked out at 96%. The “Hill coefficient, GABAA receptor inhibition” value in data set [1] (dose-response model) is given as around 1. Further, the “effect on GABAA receptor currents” value in data set [1] was “dose-dependent inhibition”. In addition, in data set [2] (10 mM drug), the “Nav1.2 channel current at highest concentration” value was “near or complete loss of channel currents”. Also, in data set [2], the “inhibition of Nav1.2 channels” value is 90%; the “Hill coefficient, Nav1.2 channel inhibition” value is given as around 1; the “effect on Nav1.2 channel currents” value is “dose-dependent inhibition”. Further, in the data set on Sprague Dawley rats (0.2 mL IV), the “duration of general anesthesia effects” value amounted to 1 min; the “gross necropsy performed 2 days later” value is given as “No evidence of hepatic, renal, cardiac, or pulmonary injury”; the “time after administration to awake and ambulatory” value was at most 3 min. Moreover, the “time to general anesthesia (loss of righting reflex and tail clamp response)” value in the data set with Sprague Dawley rats (0.2 mL IV, approx. 300 g rats) was at most 30 s. In the data set with Sprague Dawley rats (0.4 mL IV), the “apnea after onset of anesthesia” value is on record as “almost immediately”, the “time from apnea to confirmed cardiac arrest” value came out at 2 min and the time to anesthesia is at most 45 s. The “bath concentration causing anesthesia” value with carp was 1.9 to 4.5 mM.

By IC50 is commonly meant the concentration at which inhibition is half-maximal.
